Results from patent publication US4695545A, “Culture and process for producing A41030 antibiotics” (Eli Lilly and Company, priority 1984, dated 1987).

How the values were obtained:
Propionibacterium acnes [1] = test: MIC anaerobic bacteria, agar-dilution; assay type: cell-based; conditions: Propionibacterium acnes 79; agar-dilution (Table 9)
Clostridium septicum = test: MIC anaerobic bacteria, agar-dilution; assay type: cell-based; conditions: Clostridium septicum 1128
Streptococcus pyogenes = test: MIC aerobic bacteria, standard agar-dilution assay; assay type: cell-based; conditions: Streptococcus pyogenes C203, 24 hours
[2] = system: Streptococcus sp. Group D; test: MIC aerobic bacteria, standard agar-dilution assay; assay type: cell-based
Streptococcus pneumoniae = test: MIC aerobic bacteria, standard agar-dilution assay; assay type: cell-based; conditions: Streptococcus pneumoniae Park I, 24 hours
Clostridium difficile [3] = test: MIC against Clostridium difficile strains, agar-dilution; assay type: cell-based
From the text: The A41030 antibiotic factors A, B, C, D, E, F, and G, are also active against a number of strains of Clostridium difficile, as determined by the agardilution method.

S. pyogenes = test: In vivo oral activity against S. pyogenes in mice
[4] = system: Bacteroides melaninogenicus; test: MIC anaerobic bacteria, agar-dilution; assay type: cell-based; conditions: Bacteroides melaninogenicus 2736
Clostridium difficile [5] = test: MIC anaerobic bacteria, agar-dilution; assay type: cell-based; conditions: Clostridium difficile 2994; agar-dilution (Table 9)
Bacteroides corrodens = test: MIC anaerobic bacteria, agar-dilution; assay type: cell-based; conditions: Bacteroides corrodens 1874
Peptococcus prevoti = test: MIC anaerobic bacteria, agar-dilution; assay type: cell-based; conditions: Peptococcus prevoti 1281
[6] = system: Peptococcus asaccharolyticus; test: MIC anaerobic bacteria, agar-dilution; assay type: cell-based; conditions: Peptococcus asaccharolyticus 1302
[7] = system: Staphylococcus epidermidis; test: MIC aerobic bacteria, standard agar-dilution assay; assay type: cell-based; conditions: Staphylococcus epidermidis EPI1, 24 hours
Haemophilus influenzae = test: MIC aerobic bacteria, standard agar-dilution assay; assay type: cell-based
[8] = system: Fusobacterium necrophorum; test: MIC anaerobic bacteria, agar-dilution; assay type: cell-based; conditions: Fusobacterium necrophorum 6054A
Clostridium perfringens = assay type: cell-based; conditions: Clostridium perfringens 81; agar-dilution
[9] = system: Peptostreptococcus anaerobius; test: MIC anaerobic bacteria, agar-dilution; assay type: cell-based; conditions: Peptostreptococcus anaerobius 1428
Solubility in solvents = assay type: physicochemical; conditions: qualitative
From the text: As many as seven antibiotic factors are recovered from the fermentation and are obtained as a mixture, the A41030 complex. It will be recognized that the ratio of the factors in the A41030 complex will vary, depending upon the fermentation conditions used. The individual factors A, B, C, D, E, F, and G are separated and isolated as individual compounds, as hereinafter described.

Bacteroides vulgatis = test: MIC anaerobic bacteria, agar-dilution; assay type: cell-based; conditions: Bacteroides vulgatis 1211
Bacteroides fragilis = test: MIC anaerobic bacteria, agar-dilution; assay type: cell-based
Fusobacterium symbiosum = test: MIC anaerobic bacteria, agar-dilution; assay type: cell-based; conditions: Fusobacterium symbiosum 1470
Propionibacterium acnes [10] = test: MIC against Propionibacterium acnes strains, 24-hour agar-dilution; assay type: cell-based
From the text: Antibiotic A41030 factors A, B and C have been tested and found to be active against a genus of anaerobic bacteria identified as Propionibacterium acnes.

[11] = Electrometric titration (pKa); assay type: physicochemical; conditions: electrometric titration in 66% dimethylformamide in water
From the text: Antibiotic A41030 factor A is a white, crystalline solid.

[12] = system: Bacteroides thetaiotaomicron; test: MIC anaerobic bacteria, agar-dilution; assay type: cell-based; conditions: Bacteroides thetaiotaomicron 1438

A41030 factor C
MIC (Propionibacterium acnes [1]): ≤ 0.25 mg/L | MIC (Clostridium septicum): 8 mg/L | MIC (Streptococcus pyogenes): 1 mg/L | MIC ([2]; Streptococcus sp. Group D 9960, 24 hours): 4 mg/L | MIC ([2]; Streptococcus sp. Group D X66, 24 hours): 2 mg/L | MIC (Streptococcus pneumoniae): 1 mg/L | MIC (Clostridium difficile [3]; Clostridium difficile 78): 1.0 mg/L | MIC (Clostridium difficile [3]; Clostridium difficile 107B): 1.0 mg/L | MIC (Clostridium difficile [3]; Clostridium difficile 111F): 2 mg/L | MIC (Clostridium difficile [3]; Clostridium difficile 1153): 2 mg/L | MIC (Clostridium difficile [3]; Clostridium difficile 2634): 2 mg/L | MIC (Clostridium difficile [3]; Clostridium difficile 3424-5B): 1.0 mg/L | MIC (Clostridium difficile [3]; Clostridium difficile 3816): 2 mg/L | MIC (Clostridium difficile [3]; Clostridium difficile 3950D): 2 mg/L | MIC (Clostridium difficile [3]; Clostridium difficile 6890): 2 mg/L | MIC (Clostridium difficile [3]; Clostridium difficile 8484): 1.0 mg/L | MIC (Clostridium difficile [3]; Clostridium difficile A-194): 2 mg/L | MIC (Clostridium difficile [3]; Clostridium difficile A-195): 1.0 mg/L | MIC (Clostridium difficile [3]; Clostridium difficile A-196): 2 mg/L | MIC (Clostridium difficile [3]; Clostridium difficile A-279): 2 mg/L | MIC (Clostridium difficile [3]; Clostridium difficile A-280): 1.0 mg/L | MIC (Clostridium difficile [3]; Clostridium difficile A-281): 2 mg/L | MIC (Clostridium difficile [3]; Clostridium difficile WAL-2112): 2 mg/L | MIC (Clostridium difficile [3]; Clostridium difficile WAL-3657): 2 mg/L | MIC (Clostridium difficile [3]; Clostridium difficile WAL-4268): 1.0 mg/L | in vivo oral activity (S. pyogenes): > 300 mg./kg.×2 | MIC [4]: 4 mg/L | MIC (Clostridium difficile [5]): 16 mg/L | MIC (Bacteroides corrodens): 32 mg/L | MIC (Peptococcus prevoti): ≤ 0.25 mg/L | MIC [6]: ≤ 0.25 mg/L | MIC [7]: 0.5 mg/L | MIC (Haemophilus influenzae; Haemophilus influenzae 251, 24 hours): 4 mg/L | MIC (Haemophilus influenzae; Haemophilus influenzae Brun, 24 hours): 16 mg/L | MIC [8]: 16 mg/L | MIC (Clostridium perfringens): 1.0 mg/L | MIC [9]: ≤ 0.25 mg/L | solubility (solvents) (Solubility in solvents): soluble in the same solvents as factor A | MIC (Bacteroides vulgatis): 32 mg/L | MIC (Bacteroides fragilis; Bacteroides fragilis 1877): 16 mg/L | MIC (Bacteroides fragilis; Bacteroides fragilis 1936B): 32 mg/L | MIC (Fusobacterium symbiosum): 1.0 mg/L | MIC (Propionibacterium acnes [10]; P. acnes strain 104): 0.25 mg/L | MIC (Propionibacterium acnes [10]; P. acnes strain 5170): ≤ 0.03 mg/L | MIC (Propionibacterium acnes [10]; P. acnes strain 5176): ≤ 0.03 mg/L | MIC (Propionibacterium acnes [10]; P. acnes strain 5187): 0.06 mg/L | MIC (Propionibacterium acnes [10]; P. acnes strain 5197): ≤ 0.03 mg/L | MIC (Propionibacterium acnes [10]; P. acnes strain 5227): 0.06 mg/L | MIC (Propionibacterium acnes [10]; P. acnes strain 5228): 1.0 mg/L | MIC (Propionibacterium acnes [10]; P. acnes strain 5229): 0.5 mg/L | MIC (Propionibacterium acnes [10]; P. acnes strain 5246): 0.06 mg/L | MIC (Propionibacterium acnes [10]; P. acnes strain 5292): 0.06 mg/L | pKa, second titratable group [11]: ~7.1 | possibly additional pKa's ([11]; stated as possible): > 10 | MIC [12]: 64 mg/L
